Data reported in patent US9445596B2, “Small molecule compounds for the control of nematodes” (California Institute of Technology, priority 2011, dated 2016).
“Also recorded” adds a separate entry of the source.

Columns and labels:
[1] = tested on: C. elegans dauer larvae; experiment: Dispersal assay, C. elegans dauer; format: in vivo; details: for dauer larvae that moved away from the release location, normalized to the percent of the positive control response: physiological concentration, with 0.25% E. coli (HB101), food only control approximately 35%; for substitution for ascr#2 in the C. elegans dispersal blend: in vivo
Experimental: C. elegans dauer juveniles were washed with MILLI-Q water 3 times, placed into 6 cm petri dishes with a small amount of water, and rested overnight. Approximately 200-300 nematodes in 10 μl of water were placed on an agar plate, to which 2 μl of treatment was added. The liquid culture that produced 60% dauer animals was centrifuged, filtered with a 0.45 μm filter, and used as a positive control for dispersal. Thereafter, media were lyophilized and resuspended in MILLI-Q water 5 times. 2 μl to 10 μl of nematode suspension was used for the assay. As a negative control, 0.5% E. coli (HB101) was prepared in S-complete, lyophilized, and adjusted to the final volume of 0.25% E. coli in the assay.
Nematodes were quantified using Image J software (Image Processing and Analysis in Java, National Institutes of Health). The number of nematodes visualized and counted using Image J is illustrated in FIG. 63B. Nematodes inside the circle were subtracted manually from the total number of worms counted because of the location of their placement. Each treatment was replicated 9-11 times. The graph was normalized to the positive control, the dauer conditioned medium.

[2] = tested on: C. elegans hermaphrodites and males; details: from 1 μM concentration; previous study (Srinivasan 2008); cited from earlier work
[3] = tested on: C. elegans; details: shown previously; cited from earlier work
[4] = tested on: C. elegans males; experiment: Attraction assay (long-range, point source); format: in vivo; details: point source on 10 cm plate
Experimental: 10 cm standard chemotaxis plates were prepared (Bargmann et al., Cell 74:515-27 (1993), which is hereby incorporated by reference in its entirety) and stored at 4° C. until the day before use. Standard 1 cm-diameter copper pipes were sectioned into 1 cm-tall segments to use for the holding chambers. The females/hermaphrodites were isolated overnight, washed 3 times in M9 buffer, and then allowed to wander on a plate pre-conditioned with 50 uL of 1000× streptomycin for 2 hours to kill any bacteria that might produce a false positive attractant. The nematodes were then washed 3 times, and the supernatant from the last wash was placed in a copper chamber, as the control, 1 cm from the border of the 10 cm plate. The nematodes were suspended in M9 within the copper chamber, 1 cm from the border opposite the control chamber. After 6 hours, they were subsequently removed and replaced with 3 μL of 1M sodium azide. 100 C. elegans adult males were isolated overnight, washed several times in ddH2O, and placed at the center of the agar plate. After several hours, males paralyzed within 2 cm of each region were scored. The Chemotaxis Index (Bargmann et al., Cell 74:515-27 (1993), which is hereby incorporated by reference in its entirety) was then used to score male chemotaxis to either point source.

[5] = tested on: several of the tested nematode species; experiment: Retention assay, several nematode species; format: in vivo; details: 1 nM, 1 μM and 1 mM tested
Experimental: OP50 E. coli was grown on a standard 5 cm agar plate (made with standard Nematode Growth Medium). The bacterial lawn was 16 mm in diameter and was grown overnight at 20° C. before being used in trials. Two 4 mm spots (0.6 μL) were placed on opposite sides of the bacterial lawn (using a transparent template to guide spot placement), and several minutes elapsed for the liquid to settle in before placing nematodes down on the assay. Recording began immediately upon worm placement. 0.6 μL of the control was placed on one side of the lawn, and 0.6 μL of the experimental cue was placed on the other side of the lawn, changing the location of the cue throughout trials between left/right and top/bottom to avoid bias.
Nematodes were isolated by gender at the L4 stage the day before being used in trials as developed adults. Worms were evenly divided and placed at two points equidistant from the foci of the scoring region. Trials were recorded for 20 minutes, and frames were collected for analysis at 1 frame per second. Results were averaged from at least three different trials. For every nematode species in this study, a different total number of worms (using water in both scoring regions) was tested to determine the minimum number of worms necessary for consistent unbiased results over a 20 minute trial. The total number of worms used in the multiple species assays depended on that species' optimal parameters. 10 worms were used for P. redivivus males and females, 20 worms were used for C. elegans males and O. dolichuridae males, and 14 worms were used for S. glaseri males. The Automated Software was used to compare worm occupancy in each scoring region over time, and the Chemotaxis Index (Bargmann et al., Cell 74:515-27 (1993), which is hereby incorporated by reference in its entirety) was adapted to score preference or avoidance to each ascaroside.
A video camera attached to the microscope produced a digital video stream, which was then analyzed. The ratio of the time the average worm spent in each region of interest was calculated for every trial. For ease of implementation, all worms in a single experiment were assumed to be roughly the same size. Thus worm pixels were counted instead of whole worms, allowing fractions of a worm in the region of interest to be taken into account. It also eliminated the need for a shape-based worm identification algorithm, and allowed each frame to be analyzed independently. A band-pass filter was applied to each frame to eliminate the effect of uneven lighting and also accentuate the worms against the background. The worm was then identified after thresholding the filtered image. Throughout each experiment, the locations and sizes of the regions of interest were known. Through the filtering described above, it is known which pixels are occupied by worms and which ones are not. Thus, the ratio of worm-pixels to all pixels inside the region of interest can be calculated to produce the worm-occupancy ratio. This calculation was done for every frame, giving a plot output of worm-occupancy ratio vs. time for each region.

[6] = tested on: P. pacificus strain RSB020; experiment: Mouth-form dimorphism assay; format: in vivo, Pristionchus pacificus; details: synthetic samples; first assayed at 1 μM
Experimental: Mouth-form dimorphism assays were performed using P. pacificus strain RSB020. The synthetic compounds dissolved in ethanol (0.5 mM) were diluted with water to make 100 μl solution and subsequently added to 3 mL NGM-agar (1 μM final concentration). The assay plates were seeded with 50 μl OP50 culture in LB medium and incubated overnight at 20° C. to allow bacterial growth. Each replicate included the progeny of two mothers, which were picked as adult hermaphrodites of a consistent age (carrying 4-6 eggs) and which were all from the same P. pacificus culture plate. Following the placement of mothers on assay plates, plates were kept at 20° C. for six days, such that the entire broods were adults at the time of screening. A random sample of 50 hermaphrodite progeny was screened per plate. All animals were screened by differential interference contrast (DIC) microscopy on a Zeiss Axiskop. The following discrete characters were used to discriminate eurystomatous from stenostomatous individuals, respectively: (1) claw-shaped vs. flint-shaped (i.e. dorsoventrally symmetrical) dorsal tooth; (2) presence vs. absence of a subventral tooth; (3) strongly vs. weakly sclerotized stomatal walls. No intermediate mouth-forms were observed. Experiments were conducted in triplicate for each treatment. In assays of responses to compounds of several concentrations (1, 0.3, 0.1, 0.03, 0.01 μM final concentrations), experiments were performed as described above, with the following modifications. To allow greater resolution of responses to lower concentrations, 60 randomly screened individuals in each of five replicates per concentration per compound were assayed. All concentration-curve experiments were performed in parallel using mothers picked randomly from the same two source populations. To prepare large numbers of individual mothers for these experiments, source populations were established from virgin hermaphrodites to constrain the presence of males and were conditioned to well-fed and ambient conditions for at least one generation before mothers were picked for the assays.

[7] = tested on: S. feltiae IJs; experiment: Dispersal assay, S. feltiae infective juveniles; format: in vivo; details: for dispersal activity in combination with natural fractions B and C: ascr#9 40 pmol/μl, ascr#11 1.3 pmol/μl; for dispersal activity when tested alone: physiologically relevant concentrations
Experimental: S. feltiae IJs were washed with MILLI-Q water three times and incubated in 6 cm petri dishes for […] with a small amount (4-5 ml) of MILLI-Q water. Nematodes were placed the following day on a 10.7 g/L agar with 1010 g/cm^2 gel strength (PhytoTechnology Lab. Shawnee Mission, Kans.). Nematode behavior was assayed on multiple plates with internal plate replicates to rule out the possibility that behavior was affected by plate composition. Approximately 300 IJs in 10 μl water were placed on an agar medium and the test compounds or extracts (1-2 μl) were placed into the nematode suspension. Upon absorption (˜15 minutes) of the liquid, the freely moving nematodes were video recorded for 5-10 minutes. Dispersal behavior is temperature and season dependent. During winter, the assay is effective at room temperature (22±1° C.). During summer, the assay requires a temperature controlled environment due to the effects on nematode behavior above 23° C.
Activity-guided fractionation was conducted as reported in Srinivasan et al., Nature 454:1115-18 (2008), which is hereby incorporated by reference in its entirety, with modifications. A total of 33 insect host cadavers (G. mellonella larvae) were placed into 70% EtOH and stored at −20° C. until extraction. The insect cadavers were homogenized using 1 g of ceramic zirconium beads (1.25 mm) (ZIRMIL) in 2 ml tubes for 37 seconds using a Precellys24 homogenizer. Samples were centrifuged for 15 minutes at 18400 relative centrifugal force (rcf), and the supernatant was lyophilized and resuspended in MILLI-Q water. The dispersal activity of nematodes was tested using the dispersal assay described in Example 60 and a physiologically relevant concentration of insect host cadaver extract or fractionated extract. To facilitate calculations for physiologically relevant concentration of the ascarosides, wax worm volume was estimated at ˜200 μl; the average weight of wax worms was 232+57 mg (n=19).
The first reverse-phase solid-phase extraction was performed using Sep-Pak Plus C18 cartridges (Waters corporation, Milford, Mass.). The initially collected flow through was termed Fraction A. Thereafter, the column was washed with water, collected, and saved. Subsequently, the column was eluted with 50% (Fraction B) and 90% (Fraction C) MeOH. The fractions were tested for dispersal activity both individually and in combination. Also, individual fractions were analyzed by LC-MS. Fraction A contained ascr#9, which was collected by LC-MS and tested for activity with Fraction B+C.

[8] = tested on: P. pacificus; experiment: Dauer formation assay; format: in vivo, Pristionchus pacificus; details: synthetic samples; first assayed at 1 μM
Experimental: Dauer formation assays were performed as described in Ogawa et al., Curr. Biol. 19:67-71 (2009), which is hereby incorporated by reference in its entirety, using heat- or kanamycin-killed E. coli OP50. Synthetic compounds were dissolved in ethanol (0.5 mM, stock solution) and combined with water to make a […] and subsequently added to 3 mL NGM-agar without peptone ([…], 0.3, 0.1 μM final concentrations).

| SMILES | dauer larvae that moved away from the release location, normalized to the percent of the positive control response [1] [%] | promotion of dauer entry [3] | male attraction from a distance / chemotaxis towards a point source [4] | preference for areas conditioned by the ascaroside [5] | induction of the eurystomatous mouth form [6] | dispersal activity in combination with natural fractions B and C [7] | dispersal activity when tested alone [7] | also measured |
| --- | --- | --- | --- | --- | --- | --- | --- | --- |
| CC(=O)CCC[C@@H](C)O[C@@H]1O[C@@H](C)[C@H](O)C[C@H]1O [ascr#2] | 40 | individually promote dauer entry | chemotax towards | – | – | – | – | most active amount for attraction in C. elegans [2]: ~1 pmol; lowest amount eliciting male attraction (as low as) [4]: 500 attomol |
| C[C@H](CC/C=C/C(=O)Nc1ccc(C(=O)O)cc1)O[C@@H]1O[C@@H](C)[C@H](O)C[C@H]1O [ascr#8] | 50 | individually promote dauer entry | not active | preferred | – | – | – | – |
| C[C@H](CCC(=O)O)O[C@@H]1O[C@@H](C)[C@H](O)C[C@H]1O [ascr#9] | – | – | – | preferred | inactive | restored the original dispersal activity | did not have activity by themselves | substitution for ascr#2 in the C. elegans dispersal blend [1]: can replace the function of ascr#2; substitution for ascr#2 in the C. elegans dispersal blend ([1]; listed as Ascr#9): able to substitute for its structural analog ascr#2 |
| C[C@H](CC(=O)O)O[C@@H]1O[C@@H](C)[C@H](O)C[C@H]1O [ascr#11] | – | – | – | – | – | restored the full activity; also recorded: sufficient to cause dispersal | did not have activity by themselves | – |
| C[C@H](CCC(=O)O)O[C@@H]1O[C@@H](C)[C@H](O)C[C@@H]1O [part#9, (R)-4-(((2R,3S,5R,6S)-3,5-dihydroxy-6-methyltetrahydro-2H-pyran-2-yl)oxy)pentanoic acid] | – | – | – | – | inactive | – | – | dauer induction [8]: weaker dauer inducation |
